Measured values published in paper PMC11830387, “KIRA6 is an Effective and Versatile Mast Cell Inhibitor of IgE‐mediated Activation” (European Journal of Immunology, 2024).

What was measured:
[1] = molecular target: T1, FYN (Homo sapiens, UniProt P06241); experiment: MicroScale thermophoresis, supported by nanoDSF; assay type: binding
T1 construct: recombinant human active protein kinase FYN (ProQinase, #0352-0000-1)

[2] = molecular target: T2, LYN (Homo sapiens, UniProt P07948); experiment: MicroScale thermophoresis, supported by nanoDSF thermal shift; assay type: binding
T2 construct: recombinant human active protein kinase LYN (ProQinase, #0358-0000-1)

[3] = molecular target: T3, LYN (Mus musculus, UniProt P25911); experiment: in vitro kinase assay with immunoprecipitated LYN and GST-SH3P7 substrate; assay type: biochemical
T3 construct: LYN immunoprecipitated from unstimulated BMMCs
T3 sequence (P25911 2-512): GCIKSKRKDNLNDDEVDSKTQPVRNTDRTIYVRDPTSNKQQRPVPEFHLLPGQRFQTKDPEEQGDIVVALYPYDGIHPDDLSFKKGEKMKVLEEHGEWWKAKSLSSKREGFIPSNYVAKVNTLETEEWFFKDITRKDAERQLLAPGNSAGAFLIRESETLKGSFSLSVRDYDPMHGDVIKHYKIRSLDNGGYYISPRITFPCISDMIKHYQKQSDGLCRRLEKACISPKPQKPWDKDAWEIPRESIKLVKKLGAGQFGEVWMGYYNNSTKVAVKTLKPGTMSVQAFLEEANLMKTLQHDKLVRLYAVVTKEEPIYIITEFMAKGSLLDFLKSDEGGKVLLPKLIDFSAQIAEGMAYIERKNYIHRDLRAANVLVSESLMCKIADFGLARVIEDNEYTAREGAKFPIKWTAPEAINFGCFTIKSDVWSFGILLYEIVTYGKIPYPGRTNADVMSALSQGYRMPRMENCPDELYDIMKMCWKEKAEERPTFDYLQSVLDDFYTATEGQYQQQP

T1 sequence (P06241 2-537): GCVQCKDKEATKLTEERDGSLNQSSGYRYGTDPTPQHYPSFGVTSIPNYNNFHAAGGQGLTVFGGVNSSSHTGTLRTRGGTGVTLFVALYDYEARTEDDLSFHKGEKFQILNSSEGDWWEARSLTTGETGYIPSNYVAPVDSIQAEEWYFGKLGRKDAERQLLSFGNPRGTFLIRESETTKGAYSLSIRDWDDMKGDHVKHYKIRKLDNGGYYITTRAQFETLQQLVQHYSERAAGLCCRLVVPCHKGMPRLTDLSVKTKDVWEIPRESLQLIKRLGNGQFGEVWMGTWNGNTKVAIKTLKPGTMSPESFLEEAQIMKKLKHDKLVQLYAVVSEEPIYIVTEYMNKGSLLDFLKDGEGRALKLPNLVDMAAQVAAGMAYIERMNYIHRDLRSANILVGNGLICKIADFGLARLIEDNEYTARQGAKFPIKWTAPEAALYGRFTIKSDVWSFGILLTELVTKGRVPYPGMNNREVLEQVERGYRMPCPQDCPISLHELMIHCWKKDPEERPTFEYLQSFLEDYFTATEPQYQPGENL
T2 sequence (P07948 2-512): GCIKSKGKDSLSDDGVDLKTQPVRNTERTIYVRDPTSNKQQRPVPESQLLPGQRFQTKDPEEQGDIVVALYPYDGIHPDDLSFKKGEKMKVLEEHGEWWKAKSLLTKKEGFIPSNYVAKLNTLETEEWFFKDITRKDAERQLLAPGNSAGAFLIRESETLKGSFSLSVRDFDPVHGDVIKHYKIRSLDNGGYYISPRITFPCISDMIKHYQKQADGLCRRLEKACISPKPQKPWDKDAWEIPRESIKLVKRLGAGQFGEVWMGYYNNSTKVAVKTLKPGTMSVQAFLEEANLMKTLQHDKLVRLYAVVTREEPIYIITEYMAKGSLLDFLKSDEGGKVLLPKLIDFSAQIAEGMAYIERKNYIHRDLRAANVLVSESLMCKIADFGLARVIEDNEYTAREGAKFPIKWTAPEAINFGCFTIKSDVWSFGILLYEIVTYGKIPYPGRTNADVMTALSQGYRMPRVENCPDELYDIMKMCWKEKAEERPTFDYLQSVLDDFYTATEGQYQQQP

Kd [1]: 8.4 ± 2.6 µM | Kd [2]: 3.2 ± 1.2 µM | IC50 [3]: ~0.3 µM
SMILES: CC(C)(C)c1nc(-c2ccc(NC(=O)Nc3cccc(C(F)(F)F)c3)c3ccccc23)c2c(N)nccn12 [KIRA6]
